# Values of other authors in patent US20200261400A1, “METHOD FOR LONG-TERM TREATMENT OF ROSACEA” (Sol-Gel Technologies Ltd., priority 2019, published 2020).
# System: rosacea lesions
# Conditions: BPO as the sole active agent
smiles,measurement,value
"O=C(OOC(=O)c1ccccc1)c1ccccc1 [BPO, Benzoyl peroxide]",response of lesions,unresponsive
